# Results as given in patent US20200246316A1, “METHODS OF TREATING POST-SURGICAL PAIN WITH A THIAZOLINE ANTI-HYPERALGESIC AGENT” (CERSCI THERAPEUTICS, INC., priority 2019, published 2020).
# “Also recorded” adds a separate entry of the source. Counter-ions that a name gives are not always drawn. Like-named read-outs stand apart in the source and are kept apart here.
# How the values were obtained:
# mouse incisional model = experiment: Mouse incisional model (mimicking the Brennan protocol); assay type: in vivo; conditions: 10 mg/kg IP QD, Days 1 and 3 after incision
# Description: In a mouse incisional model (mimicking the Brennan protocol), animals were baselined for mechanical thresholds prior to incision and then given a daily dose of Compound 1 (10 mg/kg IP QD) or vehicle for 7 days.
# [1] = system: STZ-induced mechanical allodynia; experiment: Streptozotocin (STZ) diabetic neuropathy model; assay type: in vivo, mice; conditions: FIG. 14
# Description: Streptozotocin (STZ) destroys insulin-producing cells and generates a diabetic phenotype in mice. Animals were dosed with STZ on day −7. By day 0, animals are hyperglycemic and hyperalgesic (day 0 BL).
# [2] = system: rat models of diabetic neuropathy; experiment: Rat models of diabetic neuropathy (streptozotocin- and methylglyoxal-induced); assay type: in vivo; conditions: mono-hydrochloride
# Excerpt: (§1) In various embodiments, Compound 1 is efficacious in in vivo animal models of acute post-incisional hyperalgesia, both prophylactically and palliatively. […] In various embodiments, less than about 1%, 0.8%, 0.6%, 0.4%, 0.2%, 0.1%, 0.08%, 0.06%, 0.04%, 0.02%, or 0.01% of Compound 1 in blood plasma penetrates the BBB.
# uninjured animals = experiment: Normal sensation in uninjured animals; assay type: in vivo
# Excerpt: as §1
# [3] = Dog 28-day repeat dose PO study; assay type: in vivo
# Description: Beagle dogs (4/sex/group plus 2/sex/group for control and high dose animals for recovery) were administered daily doses of 0, 100, 250 or 400 mg/kg/day of Compound 1 in 0.5% HPMC. […] Dogs in Group 1 (Vehicle Control) were bled once at approximately 2-4 hours post-dose on those days.
# [4] = Rat brain distribution and pharmacokinetic study; assay type: in vivo
# Excerpt: A rat brain distribution study performed in order to determine standard pharmacokinetic parameters and to assess the brain penetration properties of Compound 1 administered orally and intravenously.
# [5] = Red Blood Cell (RBC) partitioning; assay type: in vitro ADME; conditions: 60 min post-exposure
# Excerpt: The compound distributed readily in tissues with a steady-state volume of distribution of 1.7 L/kg.
# CYP2C9 = molecular target: T1, CYP2C9 (Homo sapiens, UniProt P11712); experiment: CYP inhibition in human liver microsomes; assay type: in vitro ADME
# T1 construct: tissue BD Gentest; host or cells: human liver microsomes
# T1 sequence (P11712 whole entry): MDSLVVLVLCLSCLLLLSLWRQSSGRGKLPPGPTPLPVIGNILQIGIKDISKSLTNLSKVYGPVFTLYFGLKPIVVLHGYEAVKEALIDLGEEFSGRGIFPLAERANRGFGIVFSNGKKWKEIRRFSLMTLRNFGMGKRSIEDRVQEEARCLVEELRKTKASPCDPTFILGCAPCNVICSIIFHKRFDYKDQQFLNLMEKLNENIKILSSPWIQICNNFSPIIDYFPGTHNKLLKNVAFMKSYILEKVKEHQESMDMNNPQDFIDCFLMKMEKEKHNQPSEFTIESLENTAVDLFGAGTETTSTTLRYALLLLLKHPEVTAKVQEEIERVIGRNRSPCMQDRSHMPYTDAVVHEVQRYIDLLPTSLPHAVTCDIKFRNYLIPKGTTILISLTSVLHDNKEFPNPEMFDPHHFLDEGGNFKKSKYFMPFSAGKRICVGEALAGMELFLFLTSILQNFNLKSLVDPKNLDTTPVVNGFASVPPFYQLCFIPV
# Description: At varying concentrations, Compound 1 was incubated with human liver microsomes (HLM) in the presence of known substrates (see below) of specific CYP isoforms, in order to measure inhibition induced by Compound 1. Microsomes were incubated with known inhibitors (positive controls) of each CYP isoform, in the presence of substrate, in order to measure the metabolic activity of the microsomes.
# OATP1B1 = molecular target: T2, OATP1B1 (Homo sapiens, UniProt Q9Y6L6); experiment: Inhibition of uptake (SLC) transporters; assay type: in vitro ADME
# T2 construct: expressed in transfected cells; host or cells: HEK293 cells
# T2 sequence (Q9Y6L6 whole entry): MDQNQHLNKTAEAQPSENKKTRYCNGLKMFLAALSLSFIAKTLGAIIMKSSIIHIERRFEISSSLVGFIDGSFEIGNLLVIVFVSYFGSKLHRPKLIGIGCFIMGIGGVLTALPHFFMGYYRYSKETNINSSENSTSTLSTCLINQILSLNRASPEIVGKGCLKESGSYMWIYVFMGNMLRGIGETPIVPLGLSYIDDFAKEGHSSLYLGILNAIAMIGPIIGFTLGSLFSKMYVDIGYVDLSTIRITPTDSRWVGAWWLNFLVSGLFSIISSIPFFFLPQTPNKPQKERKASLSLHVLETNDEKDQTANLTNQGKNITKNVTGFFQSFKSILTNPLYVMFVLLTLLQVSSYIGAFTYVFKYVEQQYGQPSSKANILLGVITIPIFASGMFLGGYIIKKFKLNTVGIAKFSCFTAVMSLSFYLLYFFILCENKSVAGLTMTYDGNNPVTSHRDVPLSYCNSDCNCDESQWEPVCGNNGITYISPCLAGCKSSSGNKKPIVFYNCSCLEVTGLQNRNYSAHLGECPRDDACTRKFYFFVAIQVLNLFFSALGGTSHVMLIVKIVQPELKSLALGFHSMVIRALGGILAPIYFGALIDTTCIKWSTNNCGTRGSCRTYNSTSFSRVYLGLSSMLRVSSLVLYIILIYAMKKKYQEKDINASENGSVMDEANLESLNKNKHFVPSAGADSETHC
# OAT1 = molecular target: T3, OAT1 (Homo sapiens, UniProt Q4U2R8); experiment: Inhibition of uptake (SLC) transporters; assay type: in vitro ADME
# T3 construct: expressed in transfected cells; host or cells: HEK293 cells
# T3 sequence (Q4U2R8 whole entry): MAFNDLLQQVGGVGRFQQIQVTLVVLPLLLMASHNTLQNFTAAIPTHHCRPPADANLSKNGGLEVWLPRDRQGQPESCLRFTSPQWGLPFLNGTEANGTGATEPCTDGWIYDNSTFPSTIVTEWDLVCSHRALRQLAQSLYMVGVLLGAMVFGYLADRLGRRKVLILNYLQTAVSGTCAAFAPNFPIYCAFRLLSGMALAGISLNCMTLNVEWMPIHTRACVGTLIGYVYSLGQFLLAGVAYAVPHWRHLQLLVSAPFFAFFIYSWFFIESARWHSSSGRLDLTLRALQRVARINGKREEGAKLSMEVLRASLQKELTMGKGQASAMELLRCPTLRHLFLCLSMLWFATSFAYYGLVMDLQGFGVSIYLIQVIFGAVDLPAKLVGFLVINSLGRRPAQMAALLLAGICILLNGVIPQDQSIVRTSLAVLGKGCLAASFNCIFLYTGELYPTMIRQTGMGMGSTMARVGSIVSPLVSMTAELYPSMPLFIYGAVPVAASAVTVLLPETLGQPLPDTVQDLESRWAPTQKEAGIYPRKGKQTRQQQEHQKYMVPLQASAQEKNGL
# OAT3 = molecular target: T4, OAT3 (Homo sapiens, UniProt Q8TCC7); experiment: Inhibition of uptake (SLC) transporters; assay type: in vitro ADME
# T4 construct: expressed in transfected cells; host or cells: HEK293 cells
# T4 sequence (Q8TCC7 whole entry): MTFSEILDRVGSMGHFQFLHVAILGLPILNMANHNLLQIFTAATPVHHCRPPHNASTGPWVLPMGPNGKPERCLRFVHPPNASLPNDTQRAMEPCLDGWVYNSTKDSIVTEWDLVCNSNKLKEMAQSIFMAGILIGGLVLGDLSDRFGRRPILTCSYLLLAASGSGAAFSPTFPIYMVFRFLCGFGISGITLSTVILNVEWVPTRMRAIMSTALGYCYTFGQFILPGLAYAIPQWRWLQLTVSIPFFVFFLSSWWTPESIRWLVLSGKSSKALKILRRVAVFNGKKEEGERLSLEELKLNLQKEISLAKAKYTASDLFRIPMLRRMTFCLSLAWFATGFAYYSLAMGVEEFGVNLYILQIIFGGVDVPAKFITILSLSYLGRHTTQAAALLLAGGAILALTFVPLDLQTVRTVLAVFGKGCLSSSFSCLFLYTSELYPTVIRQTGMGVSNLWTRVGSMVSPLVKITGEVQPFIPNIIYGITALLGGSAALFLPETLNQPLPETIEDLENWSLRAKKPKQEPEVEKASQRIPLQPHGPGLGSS
# BCRP = BCRP (Homo sapiens, UniProt Q9UNQ0); experiment: Inhibition of efflux (ABC) transporters
# Chain of BCRP (Q9UNQ0 whole entry): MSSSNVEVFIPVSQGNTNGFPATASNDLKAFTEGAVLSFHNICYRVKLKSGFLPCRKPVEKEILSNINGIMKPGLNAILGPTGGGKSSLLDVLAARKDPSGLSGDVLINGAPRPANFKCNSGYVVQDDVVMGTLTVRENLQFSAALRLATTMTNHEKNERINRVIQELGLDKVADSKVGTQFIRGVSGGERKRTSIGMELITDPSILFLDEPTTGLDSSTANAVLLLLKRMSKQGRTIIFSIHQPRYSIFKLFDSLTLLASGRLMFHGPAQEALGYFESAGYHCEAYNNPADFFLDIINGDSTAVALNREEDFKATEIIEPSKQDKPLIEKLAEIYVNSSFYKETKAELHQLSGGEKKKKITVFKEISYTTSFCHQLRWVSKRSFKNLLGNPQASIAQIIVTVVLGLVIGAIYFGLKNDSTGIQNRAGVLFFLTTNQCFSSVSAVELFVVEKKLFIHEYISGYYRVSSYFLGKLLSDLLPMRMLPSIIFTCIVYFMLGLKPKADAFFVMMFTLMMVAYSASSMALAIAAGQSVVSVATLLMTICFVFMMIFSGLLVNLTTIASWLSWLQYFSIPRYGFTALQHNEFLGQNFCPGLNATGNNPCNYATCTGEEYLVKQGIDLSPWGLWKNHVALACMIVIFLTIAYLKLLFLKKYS
structure (smiles),measurement,setting,value
"CC1(C)SC(Nc2ccccc2O)=N[C@@H]1C(=O)O [Compound 1, (R)-2-(2-hydroxyphenylamino)-5,5-dimethyl-4,5-dihydrothiazole-4-carboxylic acid mono-hydrochloride]",hyperalgesia,mouse incisional model,not hyperalgesic
same,STZ-induced mechanical allodynia,[1],blocks STZ-induced mechanical allodynia
same,allodynia in models of diabetic neuropathy,[2],alleviates allodynia; also recorded: reverses allodynia
same,effect on normal sensation,uninjured animals,does not alter normal sensation
same,Cmax,"[3]; 28-day pivotal dog study, at some doses",over 100 μg/mL
same,Tmax,"[3]; 28-day study, dog",≤ 1 h
same,half-life,"[3]; both sexes, beagle, dog, in vivo, po, t1/2",~3.5 h
same,Tmax,"[3]; both sexes, beagle, dog, in vivo, po, 100 and 250 mg/kg treatment groups, read-out: median tmax",1 h
same,t1/2,"[3]; both, beagle, dog, in vivo, po",3.5 h
same,Cmax,"[3]; female, beagle, dog, in vivo, po, 100 mg/kg, Day 1, 100 mg/kg PO, F, read-out: Cmax",69.3 µg/mL
same,Cmax,"[3]; female, beagle, dog, in vivo, po, 100 mg/kg, Day 15, 100 mg/kg PO, F, read-out: Cmax",53 µg/mL
same,Cmax,"[3]; female, beagle, dog, in vivo, po, 100 mg/kg, Day 28, 100 mg/kg PO, F, read-out: Cmax",60.8 µg/mL
same,Cmax,"[3]; female, beagle, dog, in vivo, po, 250 mg/kg, Day 1, 250 mg/kg PO, F, read-out: Cmax",101 µg/mL
same,Cmax,"[3]; female, beagle, dog, in vivo, po, 250 mg/kg, Day 15, 250 mg/kg PO, F, read-out: Cmax",94.6 µg/mL
same,Cmax,"[3]; female, beagle, dog, in vivo, po, 250 mg/kg, Day 28, 250 mg/kg PO, F, read-out: Cmax",89.5 µg/mL
same,Cmax,"[3]; female, beagle, dog, in vivo, po, 400 mg/kg, Day 1, 400 mg/kg PO, F, read-out: Cmax",129 µg/mL
same,Cmax,"[3]; female, beagle, dog, in vivo, po, 400 mg/kg, Day 15, 400 mg/kg PO, F, read-out: Cmax",123 µg/mL
same,Cmax,"[3]; female, beagle, dog, in vivo, po, 400 mg/kg, Day 28, 400 mg/kg PO, F, read-out: Cmax",131 µg/mL
same,Cmax,"[3]; male, beagle, dog, in vivo, po, 100 mg/kg, Day 1, 100 mg/kg PO, M, read-out: Cmax",49.9 µg/mL
same,Cmax,"[3]; male, beagle, dog, in vivo, po, 100 mg/kg, Day 15, 100 mg/kg PO, M, read-out: Cmax",50.4 µg/mL
same,Cmax,"[3]; male, beagle, dog, in vivo, po, 100 mg/kg, Day 28, 100 mg/kg PO, M, read-out: Cmax",45 µg/mL
same,Cmax,"[3]; male, beagle, dog, in vivo, po, 250 mg/kg, Day 1, 250 mg/kg PO, M, read-out: Cmax",104 µg/mL
same,Cmax,"[3]; male, beagle, dog, in vivo, po, 250 mg/kg, Day 15, 250 mg/kg PO, M, read-out: Cmax",88 µg/mL
same,Cmax,"[3]; male, beagle, dog, in vivo, po, 250 mg/kg, Day 28, 250 mg/kg PO, M, read-out: Cmax",105 µg/mL
same,Cmax,"[3]; male, beagle, dog, in vivo, po, 400 mg/kg, Day 1, 400 mg/kg PO, M, read-out: Cmax",128 µg/mL
same,Cmax,"[3]; male, beagle, dog, in vivo, po, 400 mg/kg, Day 15, 400 mg/kg PO, M, read-out: Cmax",112 µg/mL
same,Cmax,"[3]; male, beagle, dog, in vivo, po, 400 mg/kg, Day 28, 400 mg/kg PO, M, read-out: Cmax",125 µg/mL
same,peak plasma concentration,[4]; 30 mg/kg oral,9 µg/mL
same,time to peak plasma concentration,[4]; 30 mg/kg oral,≤ 1 h
same,bioavailability,"[4]; rat, in vivo, 30 mg/kg oral dose",111%
same,half-life,"[4]; rat, in vivo, 30 mg/kg oral dose, read-out: terminal half-life (converted)",1.6 h
same,Kp at 1 h,"[4]; rat, in vivo, 1 h after IV administration, read-out: brain-to-plasma concentration ratio",0.02
same,brain/tissue distribution,"[4]; rat, in vivo, mono-hydrochloride",distributes to tissues but not to brain to an appreciable extent; also recorded: peripherally restricted
same,KRBC/PL,[5]; dog,< 0.25
same,KRBC/PL,[5]; human,< 0.25
same,KRBC/PL,[5]; monkey,< 0.25
same,KRBC/PL,[5]; rat,< 0.25
same,CYP inhibition,"CYP2C9; CYP2C9, up to 100 μM",did not inhibit
same,IC50,"CYP2C9; CYP2C9, read-out: IC50",> 100 µM
same,IC50,"CYP2C9; human liver microsomes, known substrate of the CYP isoform, read-out: IC50 (μM) CYP 2C9",> 100 µM
same,IC50,"OATP1B1; HEK293 cells, probe [3H]-estradiol-17β-glucuronide (0.05 μM), 0.3-600 μM tested",> 600 µM
same,transporter inhibition,OATP1B1; OATP1B1,does not inhibit
same,IC50,"OAT1; HEK293 cells, probe [3H]-p-aminohippurate (1 μM), 0.3-600 μM tested",> 600 µM
same,transporter inhibition,OAT1; OAT1,does not inhibit
same,IC50,"OAT3; HEK293 cells, probe [3H]-estrone-3-sulfate (0.05 μM), 0.3-600 μM tested",174 µM
same,transporter inhibition,OAT3; OAT3,weakly inhibits
same,IC50,BCRP,> 30 µM
same,transporter inhibition,BCRP; BCRP,modestly inhibits
